Source: patent publication US7910559B2, “Decladinosyl-macrolides with anti-inflammatory activity” (GlaxoSmithKline istrazivacki centar Zagreb d.o.o., priority 2005, dated 2011)
Where two headings read alike, the source gives them in different places.

Experiments:
Assay type in all cases: cell-based
[1] = test system: THP-1; conditions: human, 24 h
Description: (§1) Anti-inflammatory activity of compounds, i.e. observed inhibition of cytokine production and inhibition of proliferation in vitro, is not a consequence of their cytotoxicity.
(§2) Measurement of the succinate dehydrogenase activity in living cells was performed in order to assess the cytotoxicity of compounds of the invention. Cells were cultured for 24 hours in RPMI medium as described above at 37° C., in the presence of the tested compounds at concentrations of 50 μM and 12.5 μM. Afterwards, MTT [3-(4,5-dimethylthiazole-2-yl)-2,5-diphenyl tetrazolium bromide] (Promega, USA) as detection reagent was added and incubated for 0.5-2 hours. The amount of produced MTT-Formazan was determined spectrophotometrically at 490 nm (Mosmann, J. Immunol. Methods, 1983, 65: 55-63).
(§3) Percentage of viable cells was calculated using the following formula: % viable cells=[…]

[2] = test system: A549; conditions: human, 24 h
Description: as §1, §2, §3

[3] = test system: Hep G2; conditions: human, 24 h
Description: as §1, §2, §3

[4] = test system: human IL-6; experiment: Inhibition of IL-6 production by stimulated human peripheral blood leukocytes in vitro (ELISA); conditions: Homo sapiens, Leukocyte, PBL, read-out: Percentage of inhibition of IL-6 production; for inhibition at 10 µM: compound 10 μM; for inhibition at 50 µM: compound 50 μM
Description: (§4) Substances, used in in vitro experiments, were dissolved in dimethyl sulfoxide (DMSO) (Kemika, Croatia) at concentrations of 50 mM and 10 mM and were further diluted to the final concentrations of […] in 1 mL Dulbecco's modified Eagle medium (DMEM) supplemented with 1% heat inactivated fetal bovine serum (FBS), 1% glutamax, 50 U/ml penicillin, 50 μg/ml streptomycin and 2.5 μg/mL Fungizone (amphotericin B). Media and all media supplements were purchased from Gibco, Australia, except FBS that was from Sigma, USA.
(§5) Peripheral blood leukocytes (PBL) were obtained from venous blood of healthy volunteers by sedimentation on 2% dextran T-500 (Amersham Biosciences, USA) and subsequent centrifugations of leukocyte-rich plasma.
(§6) Peripheral blood leukocytes (PBL), isolated as described above, were seeded in a 48-well plate at a concentration of 3-5×10^6 cell per well in culture medium consisting of RPMI 1640 medium (Institute of Immunology, Croatia) supplemented with 10% heat-inactivated fetal calf serum (FCS, Biowhittaker, USA), 100 U/ml penicillin (Gibco, Australia), 100 μg/ml streptomycin (Gibco, Australia) and 2 mM L-glutamine (Gibco, Australia), and preincubated with the tested compounds for 2 h at 37° C., in an atmosphere of 5% CO2, and 90% humidity. Afterwards, stimuli (Sigma, USA) were added to a final concentration of 2 μg/mL lipopolysaccharide (LPS), 1 μg/mL phorbol 12-myristate 13-acetate (PMA) or 120 μg/mL zymosan. Samples were incubated overnight under conditions described above. At the end of incubation supernatants were transferred to eppendorf tubes and centrifuged for 10 min at 1500 g. Concentrations of human TNF-α, IL-1β, IL-6 and IL-8 were determined in cell supernatants by sandwich ELISA, using capture and detection antibodies (R&D, USA) according to manufacturer's recommendations.
(§7) Inhibition (as percentage) was calculated using the following formula: % inhibition=(1−concentration of cytokines in sample/concentration of cytokines in positive control)×100 where “positive control” refers to stimulated samples not treated with substances.

[5] = test system: human TNF-α; experiment: Inhibition of TNF-α production by stimulated human peripheral blood leukocytes in vitro (ELISA); conditions: Homo sapiens, Leukocyte, PBL, read-out: Percentage of inhibition of TNF-α production; for inhibition at 10 µM: compound 10 μM; for inhibition at 50 µM: compound 50 μM
Description: as §4, §5, §6, §7

[6] = test system: human IL-1β; experiment: Inhibition of IL-1β production by stimulated human peripheral blood leukocytes in vitro (ELISA); conditions: Homo sapiens, Leukocyte, PBL, read-out: Percentage of inhibition of IL-1β production; for inhibition at 10 µM: compound 10 μM; for inhibition at 50 µM: compound 50 μM
Description: as §4, §5, §6, §7

[7] = test system: human IL-8; experiment: Inhibition of IL-8 production by stimulated human peripheral blood leukocytes in vitro (ELISA); conditions: Homo sapiens, Leukocyte, PBL, read-out: Percentage of inhibition of IL-8 production; for inhibition at 10 µM: compound 10 μM; for inhibition at 50 µM: compound 50 μM
Description: as §4, §5, §6, §7

Row | SMILES | Percentage of viable cells after treatment ([1]; 12.5 μM) [%] | Percentage of viable cells after treatment ([1]; 50 μM) [%] | Percentage of viable cells after treatment ([2]; 12.5 μM) [%] | Percentage of viable cells after treatment ([2]; 50 μM) [%] | Percentage of viable cells after treatment ([3]; 12.5 μM) [%] | Percentage of viable cells after treatment ([3]; 50 μM) [%] | inhibition at 10 µM ([4]; LPS stimulation) [%] | inhibition at 50 µM ([4]; LPS stimulation) [%] | inhibition at 10 µM ([4]; PMA stimulation) [%] | inhibition at 50 µM ([4]; PMA stimulation) [%] | inhibition at 10 µM ([4]; zymosan stimulation) [%] | inhibition at 50 µM ([4]; zymosan stimulation) [%] | inhibition at 10 µM ([5]; LPS stimulation) [%] | inhibition at 50 µM ([5]; LPS stimulation) [%] | inhibition at 10 µM ([5]; PMA stimulation) [%] | inhibition at 50 µM ([5]; PMA stimulation) [%] | inhibition at 10 µM ([5]; zymosan stimulation) [%] | inhibition at 50 µM ([5]; zymosan stimulation) [%] | inhibition at 10 µM ([6]; LPS stimulation) [%] | inhibition at 50 µM ([6]; LPS stimulation) [%] | also measured
1 | CC[C@H]1OC(=O)[C@H](C)[C@@H](OC(=O)CCN(CC)CC)[C@H](C)[C@@H](O[C@@H]2O[C@H](C)C[C@H](N(C)C)C2O)[C@](C)(O)C[C@@H](C)CN(C)[C@H](C)[C@@H](O)[C@]1(C)O (stereo in doubt) [Example 12, 3-O-(3-Diethylamino-propionyl)-3-O-decladinosyl-azithromycin] | >90 | 100 | >90 | >90 | >95 | >90 | 9 | 19 | 43 | 93 | 0 | 96 | 22 | 0 | 30 | 75 | 33 | 0 | 50 | 71 | inhibition at 10 µM ([6]; PMA stimulation): 54%; inhibition at 50 µM ([6]; PMA stimulation): 92%; inhibition at 10 µM ([6]; zymosan stimulation): 29%; inhibition at 50 µM ([6]; zymosan stimulation): 72%; inhibition at 10 µM ([7]; LPS stimulation): 16%; inhibition at 50 µM ([7]; LPS stimulation): 51%; inhibition at 10 µM ([7]; PMA stimulation): 31%; inhibition at 50 µM ([7]; PMA stimulation): 27%; inhibition at 10 µM ([7]; zymosan stimulation): 20%; inhibition at 50 µM ([7]; zymosan stimulation): 52%
2 | CC[C@H]1OC(=O)[C@H](C)[C@@H](OC(=O)CCN2CCN(CCN(CC)CC)CC2)[C@H](C)[C@@H](O[C@@H]2O[C@H](C)C[C@H](N(C)C)[C@H]2O)[C@](C)(OC)C[C@@H](C)C(=O)N[C@H](C)[C@@H](O)[C@]1(C)O [Example 18, 6-O-Methyl-3-O-decladinosyl-3-O-{3-[4-(2-Diethylamino-ethyl)-piperazin-1-yl]-propionyl}-9a-aza-9a-homoerythromycin A] | 100 | 100 | 100 | 100 | >95 | 100 | 9 | 50 | 53 | 47 | 18 | 47 | 7 | 0 | 50 | 82 | 12 | 0 | 44 | 73 | inhibition at 10 µM ([6]; PMA stimulation): 66%; inhibition at 50 µM ([6]; PMA stimulation): 87%; inhibition at 10 µM ([6]; zymosan stimulation): 32%; inhibition at 50 µM ([6]; zymosan stimulation): 76%; inhibition at 10 µM ([7]; LPS stimulation): 1%; inhibition at 50 µM ([7]; LPS stimulation): 30%; inhibition at 10 µM ([7]; PMA stimulation): 16%; inhibition at 50 µM ([7]; PMA stimulation): 13%; inhibition at 10 µM ([7]; zymosan stimulation): 3%; inhibition at 50 µM ([7]; zymosan stimulation): 21%
3 | CC[C@H]1OC(=O)[C@H](C)[C@@H](OC(=O)CCN2CCN(CCN(C)C)CC2)[C@H](C)[C@@H](O[C@@H]2O[C@H](C)C[C@H](N(C)C)[C@H]2O)[C@](C)(OC)C[C@@H](C)C(=O)N[C@H](C)[C@@H](O)[C@]1(C)O [Example 19, 6-O-Methyl-3-O-decladinosyl-3-O-{3-[4-(2-Dimethylamino-ethyl)-piperazin-1-yl]-propionyl}-9a-aza-9a-homoerythromycin A] | 100 | 100 | 100 | >95 | 100 | 100 | 16 | 56 | 56 | 61 | 19 | 44 | 11 | 7 | 53 | 82 | 18 | 12 | 44 | 73 | inhibition at 10 µM ([6]; PMA stimulation): 66%; inhibition at 50 µM ([6]; PMA stimulation): 86%; inhibition at 10 µM ([6]; zymosan stimulation): 35%; inhibition at 50 µM ([6]; zymosan stimulation): 80%; inhibition at 10 µM ([7]; LPS stimulation): 6%; inhibition at 50 µM ([7]; LPS stimulation): 32%; inhibition at 10 µM ([7]; PMA stimulation): 14%; inhibition at 50 µM ([7]; PMA stimulation): 0%; inhibition at 10 µM ([7]; zymosan stimulation): 9%; inhibition at 50 µM ([7]; zymosan stimulation): 26%
